Assay results from patent US9273058B2 (BRISTOL-MYERS SQUIBB COMPANY, priority 2013, dated 2016).
pIC50: −log10 of the molar value. Like-named read-outs stand apart in the source and are kept apart here.

Key:
CK1ε = CK1ε (Homo sapiens, UniProt P49674); experiment: CK1ε kinase assay (Caliper LabChip electrophoretic separation of fluoresceinated peptide substrate and product); type: biochemical; conditions: 200 pM CK1ε, 50 μM ATP, 1.5 μM peptide, 22 hours at room temperature; read-out: CK1ε IC50 range
How it was run: (§1)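 Reactions ran 22 hours at room temperature and were stopped with EDTA. Phosphorylated product and unphosphorylated substrate were then separated electrophoretically. Compounds were tested at eleven concentrations, and IC50 values came from non-linear regression.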

CK1δ = CK1δ (Homo sapiens, UniProt P48730); experiment: CK1δ kinase assay (Caliper LabChip electrophoretic separation of fluoresceinated peptide substrate and product); type: biochemical; conditions: 200 pM CK1δ, 50 μM ATP, 1.5 μM peptide, 22 hours at room temperature
How it was run: as §1

Sequence of CK1ε (P49674 whole entry): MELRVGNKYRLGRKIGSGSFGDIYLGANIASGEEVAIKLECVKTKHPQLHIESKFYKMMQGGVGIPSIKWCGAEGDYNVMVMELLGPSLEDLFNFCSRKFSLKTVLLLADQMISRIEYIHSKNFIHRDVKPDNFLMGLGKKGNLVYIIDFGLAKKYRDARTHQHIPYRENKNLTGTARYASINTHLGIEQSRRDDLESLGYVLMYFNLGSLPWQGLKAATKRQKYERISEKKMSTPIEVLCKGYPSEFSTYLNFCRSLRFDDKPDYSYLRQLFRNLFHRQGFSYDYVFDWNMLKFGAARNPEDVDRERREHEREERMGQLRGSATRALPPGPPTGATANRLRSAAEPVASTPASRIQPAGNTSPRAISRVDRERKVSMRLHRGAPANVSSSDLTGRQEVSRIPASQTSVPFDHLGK
Sequence of CK1δ (P48730 whole entry): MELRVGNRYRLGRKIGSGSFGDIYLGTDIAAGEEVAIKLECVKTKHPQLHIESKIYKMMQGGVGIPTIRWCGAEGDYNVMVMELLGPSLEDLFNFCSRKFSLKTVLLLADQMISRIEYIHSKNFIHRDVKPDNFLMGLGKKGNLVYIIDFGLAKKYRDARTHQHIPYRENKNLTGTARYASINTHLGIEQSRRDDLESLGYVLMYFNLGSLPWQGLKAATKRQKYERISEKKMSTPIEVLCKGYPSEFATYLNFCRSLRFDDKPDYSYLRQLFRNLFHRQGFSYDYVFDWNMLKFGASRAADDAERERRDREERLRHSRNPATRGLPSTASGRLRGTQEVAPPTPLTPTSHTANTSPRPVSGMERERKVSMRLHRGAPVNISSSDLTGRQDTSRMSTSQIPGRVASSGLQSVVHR

Row | Compound | pIC50 (CK1ε) | pIC50 (CK1δ; read-out: CK1δ IC50 range) | pIC50 (CK1δ; read-out: CK1δ)
1 | CC1Cn2nc(-c3ccc(F)c(Cl)c3)c(C(N)=O)c2CN1C(=O)NC1(C)CC(F)(F)C1 (single isomer, unassigned) [Compound 345, 2-(3-Chloro-4-fluorophenyl)-N^5-(3,3-difluoro-1-methylcyclobutyl)-6-methyl-6,7-dihydropyrazolo[1,5-a]pyrazine-3,5(4H)-dicarboxamide] | 8.00 to 11.00 | 8.00 to 11.00 | –
2 | NC(=O)c1c(-c2cccc(Cl)c2)nn2c1CN(C(=O)NC1(C(F)(F)F)CC1)CC2 [Compound A40, 2-(3-Chlorophenyl)-N^5-(1-(trifluoromethyl)cyclopropyl)-6,7-dihydropyrazolo[1,5-a]pyrazine-3,5(4H)-dicarboxamide] | 8.00 to 11.00 | 8.00 to 11.00 | –
3 | NC(=O)c1c(-c2cccc(F)c2)nn2c1CN(C(=O)Nc1ccncc1)CC2 [Compound 92, 2-(3-Fluorophenyl)-N^5-(pyridin-4-yl)-6,7-dihydropyrazolo[1,5-a]pyrazine-3,5(4H)-dicarboxamide] | 5.70 to 7.00 | 5.70 to 7.00 | 6.35
4 | CC(C)(C)NC(=O)N1Cc2c(C(N)=O)c(-c3ccc(F)c(Cl)c3)nn2C(CCF)C1 (single isomer, unassigned) [Compound A103, N^5-(tert-Butyl)-2-(3-chloro-4-fluorophenyl)-7-(2-fluoroethyl)-6,7-dihydropyrazolo[1,5-a]pyrazine-3,5(4H)-dicarboxamide] | 8.00 to 11.00 | 8.00 to 11.00 | –
5 | NC(=O)c1c(-c2cccc(Cl)c2)nn2c1CN(C(=O)NC13CCC(C(F)F)(CC1)CC3)CC2 [Compound A77, 2-(3-Chlorophenyl)-N^5-(4-(difluoromethyl)bicyclo[2.2.2]octan-1-yl)-6,7-dihydropyrazolo[1,5-a]pyrazine-3,5(4H)-dicarboxamide] | 8.00 to 11.00 | 8.00 to 11.00 | –
6 | CC1(NC(=O)N2CCn3nc(-c4cccc(Cl)c4)c(C(N)=O)c3C2)CC2(C1)CC2(F)F (single isomer, unassigned) [Compound 330, 2-(3-Chlorophenyl)-N^5-(1,1-difluoro-5-methylspiro[2.3]hexan-5-yl)-6,7-dihydropyrazolo[1,5-a]pyrazine-3,5(4H)-dicarboxamide] | 8.00 to 11.00 | 8.00 to 11.00 | –
7 | CC(C)(C)NC(=O)N1CCn2nc(-c3cccc(-c4ccccc4)c3)c(C(N)=O)c2C1 [Compound 141, 2-([1,1′-Biphenyl]-3-yl)-N^5-(tert-butyl)-6,7-dihydropyrazolo[1,5-a] pyrazine-3,5(4H)-dicarboxamide] | 5.70 to 7.00 | 5.70 to 7.00 | –
8 | CC1(CNC(=O)N2CCn3nc(-c4cccc(Cl)c4)c(C(N)=O)c3C2)CC(F)(F)C1 [Compound 230, 2-(3-Chlorophenyl)-N^5-((3,3-difluoro-1-methylcyclobutyl)methyl)-6,7-dihydropyrazolo[1,5-a] pyrazine-3,5(4H)-dicarboxamide] | 8.00 to 11.00 | 8.00 to 11.00 | –
9 | NC(=O)c1c(-c2ccc(Cl)c(Cl)c2)nn2c1CN(C(=O)NC1(COC(F)F)CCC1)CC2 [Compound 224, 2-(3,4-Dichlorophenyl)-N^5-(1-((difluoromethoxy)methyl)cyclobutyl)-6,7-dihydropyrazolo[1,5-a] pyrazine-3,5(4H)-dicarboxamide] | 8.00 to 11.00 | 8.00 to 11.00 | –
10 | C[C@@]12C[C@H]3C[C@@](Cl)(C1)C[C@](NC(=O)N1CCn4nc(-c5ccc(F)c(Cl)c5)c(C(N)=O)c4C1)(C3)C2 [Compound A69, 2-(3-Chloro-4-fluorophenyl)-N^5-((1S,3R,5S,7R)-3-chloro-5-methyladamantan-1-yl)-6,7-dihydropyrazolo[1,5-a]pyrazine-3,5(4H)-dicarboxamide] | 8.00 to 11.00 | 8.00 to 11.00 | –
11 | NC(=O)c1c(-c2ccc(F)c(Cl)c2)nn2c1CN(C(=O)N[C@H]1C[C@H](F)C1)CC2 [Compound 189, 2-(3-Chloro-4-fluorophenyl)-N^5-((1r,3r)-3-fluorocyclobutyl)-6,7-dihydropyrazolo[1,5-a] pyrazine-3,5(4H)-dicarboxamide] | 8.00 to 11.00 | 8.00 to 11.00 | –
12 | CC(C)(C)NC(=O)N1Cc2c(C(N)=O)c(-c3ccc(F)c(Cl)c3)nn2C(CF)(CF)C1 [Compound A136] | 8.00 to 11.00 | 8.00 to 11.00 | –
13 | NC(=O)c1c(-c2ccc(F)c(Cl)c2)nn2c1CN(C(=O)NC1CC(F)(F)C1)C[C@@H]2CF [Compound A114, (R)-2-(3-Chloro-4-fluorophenyl)-N^5-(3,3-difluorocyclobutyl)-7-(fluoromethyl)-6,7-dihydropyrazolo[1,5-a]pyrazine-3,5(4H)-dicarboxamide] | 8.00 to 11.00 | 8.00 to 11.00 | –
